{"source": "DBAASP", "test_in_all_cases": "≥ marks a high value that may be exact or a test limit, other limits are often not marked, values filed in µg/mL are converted to µM", "key": {"[1]": {"tested_on": "Pseudomonas aeruginosa ATCC 15692"}, "[2]": {"tested_on": "Escherichia coli ATCC 25922"}, "[3]": {"tested_on": "Bacillus subtilis KCTC 1998"}, "[4]": {"tested_on": "Staphylococcus aureus ATCC 25923"}, "[5]": {"tested_on": "Pseudomonas aeruginosa CCARM 2095"}, "[6]": {"tested_on": "Escherichia coli CCARM 1229"}, "[7]": {"tested_on": "Escherichia coli KCTC 1682"}, "[8]": {"tested_on": "Staphylococcus aureus KCTC 1621"}, "[9]": {"tested_on": "Pseudomonas aeruginosa KCTC 1637"}, "[10]": {"tested_on": "Bacillus subtilis KCTC 3068"}, "[11]": {"tested_on": "Enterococcus faecalis KCTC 2011"}, "[12]": {"tested_on": "Salmonella typhimurium CCARM 8009"}, "[13]": {"tested_on": "Salmonella typhimurium KCTC 1926"}, "[14]": {"tested_on": "Acinetobacter baumannii CCARM 12035"}, "[15]": {"tested_on": "Enterococcus faecium ATCC 700221"}, "[16]": {"tested_on": "Staphylococcus aureus ATCC 33591"}, "[17]": {"tested_on": "Pseudomonas aeruginosa ATCC 27853"}, "[18]": {"tested_on": "Listeria monocytogenes CMCC 54002"}, "[19]": {"tested_on": "Staphylococcus aureus ATCC 29213"}, "[20]": {"tested_on": "Salmonella typhimurium CMCC 50013"}, "Streptococcus mutans": {"tested_on": "Streptococcus mutans"}, "[21]": {"tested_on": "Shigella dysenteriae CMCC 51302"}, "[22]": {"tested_on": "Erwinia amylovora PMV 6076"}, "[23]": {"tested_on": "Pseudomonas syringae pv. syringae EPS 94"}, "[24]": {"tested_on": "Candida albicans ATCC 37092"}, "Candida albicans": {"tested_on": "Candida albicans"}, "[25]": {"tested_on": "Salmonella enterica serovar Typhimurium"}, "[26]": {"tested_on": "Staphylococcus epidermidis"}, "[27]": {"tested_on": "Enterococcus faecalis ATCC 29212"}, "[28]": {"tested_on": "Pseudomonas aeruginosa H103"}, "[29]": {"tested_on": "Candida albicans ATCC 90028"}, "[30]": {"tested_on": "Pseudomonas aeruginosa ATCC 9027"}, "[31]": {"tested_on": "Staphylococcus aureus USA 300"}, "[32]": {"tested_on": "Staphylococcus aureus USA 100"}, "Escherichia coli UB1005": {"tested_on": "Escherichia coli UB1005"}, "Escherichia coli": {"tested_on": "Escherichia coli"}, "[33]": {"tested_on": "Candida albicans ATCC 64550"}}, "note": "Several values for one entry are separate records, joined by “and”; a condition that tells them apart may be missing. Equal values may be shown once."}
{"smiles": "CC[C@H](C)[C@H](NC(=O)[C@H](CCCCN)NC(=O)[C@H](CO)NC(=O)[C@@H]1CCCN1C(=O)[C@H](CC(C)C)NC(=O)[C@H](CCCCN)NC(=O)[C@@H]1CCCN1C(=O)[C@H](CC(C)C)NC(=O)[C@H](CCCN=C(N)N)NC(=O)[C@H](CCCCN)NC(=O)[C@H](Cc1ccccc1)NC(=O)[C@@H](NC(=O)[C@H](CCCCN)NC(=O)[C@H](CCCCN)NC(=O)[C@H](C)N)C(C)C)C(=O)N[C@@H](Cc1c[nH]c2ccccc12)C(=O)N[C@@H](CC(N)=O)C(=O)N[C@@H](Cc1c[nH]c2ccccc12)C(=O)N[C@@H](CCCCN)C(N)=O", "note": "[AKKVFKRLPKLPSKIWNWK]", "values": [{"measurement": "MIC", "setting": "[1]", "result": 2, "unit": "µM"}, {"measurement": "MIC", "setting": "[2]", "result": 2, "unit": "µM"}, {"measurement": "MIC", "setting": "[3]", "result": 1, "unit": "µM"}, {"measurement": "MIC", "setting": "[4]", "result": 8, "unit": "µM"}]}
{"smiles": "CC(C)[C@H](NC(=O)[C@H](C)N)C(=O)N[C@@H](C)C(=O)N[C@H](C(=O)N[C@H](C(=O)NCC(=O)N[C@@H](CCC(N)=O)C(=O)N[C@@H](C)C(=O)N[C@@H](C)C(=O)N[C@H](C(=O)N[C@H](C(=O)N[C@H](C(=O)N[C@@H](CCCCN)C(N)=O)C(C)C)C(C)C)[C@@H](C)O)C(C)C)C(C)C", "note": "[AVAVVGQAATVVK]", "values": [{"measurement": "MIC", "setting": "[5]", "result": "≥ 128", "unit": "µM"}, {"measurement": "MIC", "setting": "[6]", "result": "≥ 128", "unit": "µM"}, {"measurement": "MIC", "setting": "[7]", "result": "≥ 128", "unit": "µM"}, {"measurement": "MIC", "setting": "[8]", "result": "≥ 128", "unit": "µM"}, {"measurement": "MIC", "setting": "[9]", "result": "≥ 128", "unit": "µM"}, {"measurement": "MIC", "setting": "[10]", "result": "≥ 128", "unit": "µM"}, {"measurement": "MIC", "setting": "[11]", "result": "≥ 128", "unit": "µM"}, {"measurement": "MIC", "setting": "[12]", "result": "≥ 128", "unit": "µM"}, {"measurement": "MIC", "setting": "[13]", "result": "≥ 128", "unit": "µM"}, {"measurement": "MIC", "setting": "[14]", "result": "≥ 128", "unit": "µM"}]}
{"smiles": "CC[C@H](C)[C@H](NC(=O)[C@H](CCCCN)NC(=O)[C@H](CCCCN)NC(=O)[C@H](CC(C)C)NC(=O)[C@H](CC(C)C)NC(=O)[C@H](CCCCN)NC(=O)[C@H](CCCCN)NC(=O)[C@@H](NC(=O)[C@@H](NC(=O)[C@H](CC(=O)O)NC(=O)[C@H](Cc1ccccc1)NC(=O)[C@H](CC(C)C)NC(=O)CN)C(C)C)[C@@H](C)CC)C(=O)N[C@@H](CCCCN)C(=O)NCC(=O)N[C@@H](CC(C)C)C(N)=O", "note": "[GLFDVIKKLLKKIKGL]", "values": [{"measurement": "MIC", "setting": "[15]", "result": 1.6, "unit": "µM"}, {"measurement": "MIC", "setting": "[16]", "result": 3.1, "unit": "µM"}, {"measurement": "MIC", "setting": "[2]", "result": 3.1, "unit": "µM"}, {"measurement": "MIC", "setting": "[17]", "result": 12.5, "unit": "µM"}]}
{"smiles": "CC(C)C[C@H](NC(=O)CN)C(=O)N[C@@H](CCCN=C(N)N)C(=O)N[C@@H](CCCN=C(N)N)C(=O)N[C@@H](C)C(=O)N[C@@H](CC(C)C)C(=O)N[C@@H](CC(C)C)C(=O)N[C@@H](CCCN=C(N)N)C(=O)N[C@@H](CC(C)C)C(=O)N[C@@H](CC(C)C)C(=O)N[C@@H](CCCN=C(N)N)C(=O)N[C@@H](CO)C(=O)N[C@@H](CC(C)C)C(=O)N[C@@H](CCCN=C(N)N)C(=O)N[C@@H](CCCN=C(N)N)C(=O)N[C@@H](CC(C)C)C(=O)N[C@@H](CC(C)C)C(=O)N[C@@H](CC(C)C)C(=O)N[C@@H](CCCN=C(N)N)C(=O)N[C@@H](C)C(=O)O", "note": "[GLRRALLRLLRSLRRLLLRA]", "values": [{"measurement": "MIC", "setting": "[18]", "result": 16, "unit": "µM"}, {"measurement": "MIC", "setting": "[19]", "result": 32, "unit": "µM"}, {"measurement": "MIC", "setting": "[20]", "result": 4, "unit": "µM"}, {"measurement": "MIC", "setting": "[2]", "result": 8, "unit": "µM"}, {"measurement": "MIC", "setting": "Streptococcus mutans", "result": 8, "unit": "µM"}, {"measurement": "MIC", "setting": "[21]", "result": 8, "unit": "µM"}]}
{"smiles": "CC[C@H](C)[C@H](NC(=O)[C@H](CCCCN)NC(=O)[C@H](CCCCN)NC(=O)[C@H](Cc1ccccc1)NC(=O)[C@H](CC(C)C)NC(=O)[C@H](CCCCN)NC(=O)[C@H](CCCCN)NC(=O)[C@H](C)NC(=O)[C@@H]1CCCN1C(=O)CNC(=O)[C@H](C)NC(=O)[C@H](CC(C)C)NC(=O)[C@H](Cc1ccc(O)cc1)NC(=O)[C@H](CCCCN)NC(=O)[C@H](CC(C)C)NC(=O)[C@@H](NC(=O)[C@H](CCCCN)NC(=O)[C@H](CCCCN)NC(=O)[C@H](Cc1ccccc1)NC(=O)[C@H](CC(C)C)NC(=O)[C@H](CCCCN)NC(=O)[C@@H](N)CCCCN)[C@@H](C)CC)C(=O)N[C@@H](CC(C)C)C(=O)N[C@@H](CCCCN)C(=O)N[C@@H](Cc1ccc(O)cc1)C(=O)N[C@@H](CC(C)C)C(=O)O", "note": "[KKLFKKILKYLAGPAKKLFKKILKYL]", "values": [{"measurement": "MIC", "setting": "[22]", "result": 3.54, "unit": "µM"}, {"measurement": "MIC", "setting": "[23]", "result": 3.54, "unit": "µM"}]}
{"smiles": "CC[C@H](C)[C@H](NC(=O)[C@@H]1CCCN1C(=O)[C@H](CCCN=C(N)N)NC(=O)[C@@H]1CCCN1C(=O)CNC(=O)[C@@H]1CCCN1C(=O)[C@H](CCCN=C(N)N)NC(=O)[C@@H]1CCCN1C(=O)[C@H](Cc1ccccc1)NC(=O)[C@@H]1CCCN1C(=O)[C@H](CC(C)C)NC(=O)[C@@H]1CCCN1C(=O)[C@H](CCCN=C(N)N)NC(=O)[C@@H]1CCCN1C(=O)[C@@H](NC(=O)[C@@H]1CCCN1C(=O)[C@H](CCCN=C(N)N)NC(=O)[C@@H]1CCCN1C(=O)CNC(=O)[C@@H]1CCCN1C(=O)[C@H](CCCN=C(N)N)NC(=O)[C@@H]1CCCN1C(=O)[C@H](Cc1ccccc1)NC(=O)[C@@H]1CCCN1C(=O)[C@H](CC(C)C)NC(=O)[C@@H]1CCCN1)[C@@H](C)CC)C(=O)N1CCC[C@H]1C(=O)N[C@@H](CCCN=C(N)N)C(=O)N1CCC[C@H]1C(=O)O", "note": "[PLPFPRPGPRPIPRPLPFPRPGPRPIPRP]", "values": [{"measurement": "MIC", "setting": "[19]", "result": 30.5, "unit": "µM"}, {"measurement": "MIC", "setting": "[2]", "result": 5.84, "unit": "µM"}, {"measurement": "MIC", "setting": "[24]", "result": 0.5, "unit": "µM"}]}
{"smiles": "CC[C@H](C)[C@H](NC(=O)[C@@H](NC(=O)[C@H](Cc1c[nH]c2ccccc12)NC(=O)[C@@H](NC(=O)[C@@H](N)CCCN=C(N)N)[C@@H](C)CC)C(C)C)C(=O)N[C@@H](CCCN=C(N)N)C(=O)N[C@@H](Cc1c[nH]c2ccccc12)C(=O)N[C@@H](CCCN=C(N)N)C(N)=O", "note": "[RIWVIRWR]", "values": [{"measurement": "MIC", "setting": "Candida albicans", "result": 13.5, "unit": "µM"}, {"measurement": "MIC", "setting": "[25]", "result": 13.5, "unit": "µM"}, {"measurement": "MIC", "setting": "[26]", "result": 3.38, "unit": "µM"}, {"measurement": "MIC", "setting": "[27]", "result": 6.75, "unit": "µM"}, {"measurement": "MIC", "setting": "[28]", "result": 13.5, "unit": "µM"}, {"measurement": "MIC", "setting": "[29]", "result": "≥ 100", "unit": "µM"}, {"measurement": "MIC", "setting": "[30]", "result": 25, "unit": "µM"}, {"measurement": "MIC", "setting": "[31]", "result": 12.5, "unit": "µM"}, {"measurement": "MIC", "setting": "[4]", "result": 3.38, "unit": "µM"}, {"measurement": "MIC", "setting": "[32]", "result": 12.5, "unit": "µM"}, {"measurement": "MIC", "setting": "Escherichia coli UB1005", "result": 3.38, "unit": "µM"}]}
{"smiles": "CC[C@H](C)[C@H](NC(=O)[C@H](CCCN=C(N)N)NC(=O)[C@@H](N)CCCN=C(N)N)C(=O)N[C@@H](CCCN=C(N)N)C(=O)N1CCC[C@H]1C(=O)N[C@@H](CCCN=C(N)N)C(=O)N1CCC[C@H]1C(=O)N1CCC[C@H]1C(=O)N[C@@H](CCCN=C(N)N)C(=O)N[C@@H](CC(C)C)C(=O)N1CCC[C@H]1C(=O)N[C@@H](CCCN=C(N)N)C(=O)N1CCC[C@H]1C(=O)N[C@@H](CCCN=C(N)N)C(=O)N1CCC[C@H]1C(=O)N[C@@H](CCCN=C(N)N)C(=O)N1CCC[C@H]1C(=O)O", "note": "[RRIRPRPPRLPRPRPRP]", "values": [{"measurement": "MIC", "setting": "[19]", "result": 0.81, "unit": "µM"}, {"measurement": "MIC", "setting": "[2]", "result": 0.89, "unit": "µM"}, {"measurement": "MIC", "setting": "[24]", "result": 1.05, "unit": "µM"}]}
{"smiles": "NCCCC[C@H](NC(=O)[C@H](CCCCN)NC(=O)[C@H](CCCN=C(N)N)NC(=O)[C@H](CCCN=C(N)N)NC(=O)[C@H](Cc1c[nH]c2ccccc12)NC(=O)[C@H](Cc1c[nH]c2ccccc12)NC(=O)[C@H](CCCN=C(N)N)NC(=O)[C@H](CCCCN)NC(=O)[C@H](Cc1c[nH]c2ccccc12)NC(=O)[C@@H](N)CCCN=C(N)N)C(N)=O", "note": "[RWKRWWRRKK]", "values": [{"measurement": "MIC", "setting": "Escherichia coli", "result": 3, "unit": "µM"}, {"measurement": "MIC", "setting": "[33]", "result": "≥ 100", "unit": "µM"}, {"measurement": "MIC", "setting": "[4]", "result": "3 µM and 6 µM"}]}
